pIC50: −log10 of the molar value. Where a SMILES comes first, the peptide text is derived from it.
Columns and labels:
[1] = target: T1, 20S human immunoproteasome (CT-L activity) (Homo sapiens, UniProt P28062); assay: Inhibition of CT-L activity of the immunoproteasome (Suc-LLVY-AMC fluorogenic substrate); type: biochemical; settings: for remaining activity at 5 µM: inhibitor at 5 μM, remaining enzyme activity, read-out: % IP activity (remaining activity of the enzyme); for inhibition of the CT-L activity of the immunoproteasome: 5 µM; for pIC50: unit inferred, read-out: IC50 values against the immunoproteasome
T1 construct: purchased Boston Biochem
Experimental: (§1) The computationally selected 13 compounds were tested for their inhibitory activity against the CT-L activity of the immunoproteasome. The identified active compounds were also tested for their inhibitory activity against the CT-L activity of the constitutive proteasome. For the initial activity screening, the selected compounds were dissolved in DMSO and used at a concentration of 5 μM. Epoxomicin ([…]), which reached the 100% inhibition, was used as a positive control. 20S human immunoproteasome and constitutive proteasome (Boston Biochem) were 2-fold diluted in an assay buffer (20 mM Tris/Cl, pH 8.0, 0.5 mM EDTA, 0.035% SDS).^17
(§2) Specifically, selected compounds were preincubated with 50 ng/well of the immunoproteasome or constitutive proteasome in a 96-well plate at room temperature for 13 min. 100 μM of Suc-LLVY-AMC, a fluorogenic peptide substrate for the CT-L activity, was then added to the wells. Fluorogenic signals of the free AMC (Ex: 360, Em: 460)^18 were recorded for 90 min. The initial reaction velocities (RFU/min) of each compound were calculated as a percentage of the positive control. All enzyme activity assays were carried out in triplicate.

[2] = target: T2, 20S human constitutive proteasome (CT-L activity) (Homo sapiens, UniProt P28074); assay: Inhibition of CT-L activity of the constitutive proteasome (Suc-LLVY-AMC fluorogenic substrate); type: biochemical; settings: inhibitor at 5 μM; remaining enzyme activity; read-out: % CP activity (remaining activity of the enzyme)
T2 construct: purchased Boston Biochem
Experimental: as §1, §2

remaining activity at 5 µM [1] [%] | remaining activity at 5 µM [2] [%] | inhibition of the CT-L activity of the immunoproteasome ([1]; compound at 5 μM, % inhibition) [%] | pIC50 [1] | inhibition at 5 µM ([1]; compound at 5 μM, % inhibition) [%] | Compound | inhibition by positive control ([1]; Epoxomicin at 1 tM (so in the source), positive control) [%]
80 | 80 |  |  |  | COc1ccc(-c2cc(C(=O)N[C@H](CCC(=O)OC3CCCCC3)C(=O)NCCc3ccncc3)c3ccccc3n2)cc1C [Compound 11] | 
91 | 88 |  |  |  | COc1ccccc1C(=O)N/C(=C/c1ccc(Br)cc1)C(=O)Nc1ccc(S(=O)(=O)/N=c2\[nH]ccs2)cc1 [Compound 13] | 
42 | 50 |  |  |  | Cc1ccc(OS(=O)(=O)c2cccc(C(F)(F)F)c2)c(-c2cc(-c3ccccc3)n(CCN[C@@H]3CCNC3)n2)c1 [Compound 16] | 
65 | 76 |  |  |  | NC(=O)CC[C@H](NC(=O)[C@H](Cc1cnc[nH]1)NC(=O)OCC1c2ccccc2-c2ccccc21)C(=O)N1CCC[C@H]1C(=O)O [Compound 7] (HELM PEPTIDE1{[O=C(OCC1c2ccccc2-c2ccccc21)[*:2]].H.Q.P}$$$$V2.0) | 
70 | 76 |  |  |  | CCN(CC)CCNC(=O)[C@H](Cc1ccc(OCc2ccccc2)cc1)NC(=O)CCC(=O)c1ccccc1 [Compound 14] | 
87 | 86 |  |  |  | O=C(C[C@@H]1CCN(CC2CC2)C[C@@H]1[C@H]1CC(c2ccccc2Cl)=NO1)NCCc1ccccn1 [Compound 9] | 
38 | 85 | 62 | 5.31 |  | Cc1ccc(CSC[C@@H](NC(=O)c2cc(-c3ccccc3)nc3ccccc23)C(=O)NCCCN2CCCC2=O)cc1 [Compound 3] | 
69 | 72 |  |  |  | CC[C@@H](O)CNC(=O)C[C@@H]1CCN(Cc2ccc(C)s2)C[C@@H]1[C@H]1CC(c2ccccc2OC)=NO1 [Compound 12] | 
86 | 94 |  |  |  | CC[C@H](C(=O)C(=O)NCCCN1CCOCC1)N1CC(C)C[C@@H](NC(=O)OCc2ccccc2)C1=O (stereo partly drawn) [Compound 6] | 
75 | 84 |  |  |  | O=C1CN(/N=C/c2ccc(-c3ccc(Cl)cc3)o2)C(=O)N1CCCCN1CCN(C[C@@H](O)c2ccccc2)CC1 [Compound 18] | 
81 | 82 |  |  |  | N=C(N)NCCC[C@@H]1NC(=O)[C@H](Cc2ccccc2)NC(=O)[C@@H](Cc2ccc(O)cc2)NC(=O)CNC(=O)[C@@H](Cc2c[nH]c3ccccc23)NC1=O [Compound 5] (HELM PEPTIDE1{F.R.[dW].G.[dY]}$PEPTIDE1,PEPTIDE1,1:R1-5:R2$$$V2.0) | 
 |  |  |  |  | CC[C@H](C)[C@H](NC(=O)[C@H]([C@@H](C)CC)N(C)C(C)=O)C(=O)N[C@H](C(=O)N[C@@H](CC(C)C)C(=O)[C@@]1(C)CO1)[C@@H](C)O [Epoxomicin, reference compound] | 100
42 | 41 |  |  |  | C=C(CCCc1ccccc1)N[C@@H](Cc1ccc(Cl)cc1)C(=O)N[C@H](Cc1ccccc1)C(=O)N[C@H](CCCNC(=N)N)C(=O)N[C@@H](Cc1c[nH]c2ccccc12)C(N)=O [Compound 17] | 
64 | 98 |  | 4.66 | 36 to 85 | CCC[C@H]1C[C@H](C(=O)N[C@@H]([C@@H]2O[C@H](SC)[C@@H](O)[C@@H](O)[C@@H]2O)[C@@H](C)O)[N@@H+](C)C1 [Compound 2] | 
15 | 80 | 85 | 5.77 |  | Cc1ccc(-c2cc(C(=O)NC[C@@H]3CCCO3)c3cc(CNS(=O)(=O)c4cccc(Cl)c4)ccc3n2)o1 [Compound 1] | 
82 | 85 |  |  |  | CCN1CCN(CCCN2C(=O)C3[C@H](C(=O)Nc4cc(C)cc(C)c4)[C@@H]4C=C[C@]3(O4)[C@H]2C(=O)N[C@@H]2CCC[C@H](C)[C@H]2C)CC1 (stereo partly drawn) [Compound 10] | 
90 | 106 |  |  |  | CCOc1ccc2[nH]c3c(c2c1)CC(C(=O)NCC1CCCCC1)N[C@@H]3c1ccc(O)c([N+](=O)[O-])c1 (stereo partly drawn) [Compound 8] | 
74 | 80 |  |  |  | O=C(CC[C@H](NC(=O)c1cc(-c2ccoc2)nc2ccccc12)C(=O)NCc1cc(F)ccc1F)OC1CCCCC1 [Compound 15] | 
79 | 98 |  |  |  | CCCCc1ccc2nc(-c3ccc(OC)cc3)cc(C(=O)NC[C@@H](C)C(=O)N3CCC[C@@H]3CO)c2c1 [Compound 4] | 
69 | 67 |  |  |  | Cc1cccc(Nc2ccccc2C(=O)N[C@H](CC[S@+](C)[O-])C(=O)N[C@H](C)c2ccc(F)cc2)c1C [Compound 19] | 
